# According to patent US7919634B2, “Fused thiophenes, articles, and methods thereof” (Corning Incorporated, priority 2009, dated 2011):
# Where two headings read alike, the source gives them in different places.
# Test: Solubility of selected FT4 and FT5 compounds in organic solvents (10 mg compound, stepwise 5 mL solvent additions, ultrasonic bath)
# Format: physicochemical
# Details: thermodynamic from solid
# Protocol: Solubility of Selected FT4 And FT5 Compounds Table 1 provides a solubility comparison of some α-, α′-unsubstituted, β-, β′-alkyl substituted FT4 (and FT5), with some α-, α′-substituted, β-, β′-alkyl substituted FT4 (and FT5) compounds. General Procedure: 10 mg of a FT4 or FT5 compound was mixed with 5.0 mL of a specified solvent and then sealed in a screw-top glass vial. The resulting mixture was kept in an ultrasonic bath for 30 minutes at ambient temperature and then kept quiescent for 30 minutes to check whether a clear solution formed. If the mixture was still not clear after these 60 minutes, an additional 5.0 mL of the same solvent was added to the vial and the 60 minute mixing and standing procedure was repeated up to a total of 20 mL of solvent.
# [1] = CH2Cl2, organic solvent or mixture, 10 mg compound in 5 mL CH2Cl2, ambient temperature, read-out: Solubility CH2Cl2
# [2] = hexane, organic solvent or mixture, 10 mg compound in 5 mL hexane, ambient temperature, read-out: Solubility hexane
# [3] = toluene, organic solvent or mixture, 10 mg compound in 5 mL toluene, ambient temperature, read-out: Solubility toluene
# [4] = CH2Cl2, organic solvent or mixture, 10 mg compound in 10 mL CH2Cl2, ambient temperature, read-out: Solubility CH2Cl2
# [5] = CH2Cl2, organic solvent or mixture, 10 mg compound in 15 mL CH2Cl2, ambient temperature, read-out: Solubility CH2Cl2
# [6] = CH2Cl2, organic solvent or mixture, 10 mg compound in 20 mL CH2Cl2, ambient temperature, read-out: Solubility CH2Cl2
# [7] = hexane, organic solvent or mixture, 10 mg compound in 10 mL hexane, ambient temperature, read-out: Solubility hexane
# [8] = hexane, organic solvent or mixture, 10 mg compound in 15 mL hexane, ambient temperature, read-out: Solubility hexane
# [9] = hexane, organic solvent or mixture, 10 mg compound in 20 mL hexane, ambient temperature, read-out: Solubility hexane
# [10] = toluene, organic solvent or mixture, 10 mg compound in 10 mL toluene, ambient temperature, read-out: Solubility toluene
# [11] = toluene, organic solvent or mixture, 10 mg compound in 15 mL toluene, ambient temperature, read-out: Solubility toluene
# [12] = toluene, organic solvent or mixture, 10 mg compound in 20 mL toluene, ambient temperature, read-out: Solubility toluene
solubility at 60 min [1],solubility at 60 min [2],solubility at 60 min [3],solubility at 60 min [4],solubility at 60 min [5],solubility at 60 min [6],solubility at 60 min [7],solubility at 60 min [8],solubility at 60 min [9],solubility at 60 min [10],solubility at 60 min [11],solubility at 60 min [12],SMILES
> 500 µg/mL,> 500 µg/mL,> 500 µg/mL,,,,,,,,,,CCCCCCCCCCCCCc1c(-c2ccccc2)sc2c1sc1c2sc2c3sc(-c4ccccc4)c(CCCCCCCCCCCCC)c3sc21
< 2000 µg/mL,< 2000 µg/mL,< 2000 µg/mL,> 500 µg/mL,,,< 2000 µg/mL,< 2000 µg/mL,< 2000 µg/mL,> 500 µg/mL,,,CCCCCCCCCCCCCc1csc2c1sc1c3scc(CCCCCCCCCCCCC)c3sc21
> 500 µg/mL,< 2000 µg/mL,> 500 µg/mL,,,,< 2000 µg/mL,< 2000 µg/mL,< 2000 µg/mL,,,,CCCCCCCCCCCCCc1c(-c2cccs2)sc2c1sc1c3sc(-c4cccs4)c(CCCCCCCCCCCCC)c3sc21
> 500 µg/mL,< 2000 µg/mL,> 500 µg/mL,,,,< 2000 µg/mL,< 2000 µg/mL,< 2000 µg/mL,,,,CCCCCCCCCCCCCc1c(-c2cccs2)sc2c1sc1c2sc2c3sc(-c4cccs4)c(CCCCCCCCCCCCC)c3sc21

# More lines, now with the values behind:
SMILES,solubility at 60 min [1],solubility at 60 min [2],solubility at 60 min [3],solubility at 60 min [4],solubility at 60 min [5],solubility at 60 min [6],solubility at 60 min [7],solubility at 60 min [8],solubility at 60 min [9],solubility at 60 min [10],solubility at 60 min [11],solubility at 60 min [12]
CCCCCCCCCCCCCCCCCc1csc2c1sc1c3scc(CCCCCCCCCCCCCCCCC)c3sc21,< 2000 µg/mL,< 2000 µg/mL,< 2000 µg/mL,< 2000 µg/mL,< 2000 µg/mL,< 2000 µg/mL,< 2000 µg/mL,< 2000 µg/mL,< 2000 µg/mL,< 2000 µg/mL,< 2000 µg/mL,< 2000 µg/mL
CCCCCCCCCCCCCCCCCc1c(-c2ccccc2)sc2c1sc1c3sc(-c4ccccc4)c(CCCCCCCCCCCCCCCCC)c3sc21,< 2000 µg/mL,< 2000 µg/mL,> 500 µg/mL,< 2000 µg/mL,> 500 µg/mL,,< 2000 µg/mL,< 2000 µg/mL,< 2000 µg/mL,> 500 µg/mL,,
CCCCCCCCCCCCCc1c(-c2ccccc2)sc2c1sc1c3sc(-c4ccccc4)c(CCCCCCCCCCCCC)c3sc21,< 2000 µg/mL,< 2000 µg/mL,> 500 µg/mL,> 500 µg/mL,,,< 2000 µg/mL,< 2000 µg/mL,> 500 µg/mL,,,
CCCCCCCCCCCCCc1csc2c1sc1c2sc2c3scc(CCCCCCCCCCCCC)c3sc21,< 2000 µg/mL,< 2000 µg/mL,> 500 µg/mL,> 500 µg/mL,,,> 500 µg/mL,,,,,
CCCCCCCCCCCCCCCCCc1c(-c2cccs2)sc2c1sc1c3sc(-c4cccs4)c(CCCCCCCCCCCCCCCCC)c3sc21,< 2000 µg/mL,< 2000 µg/mL,< 2000 µg/mL,< 2000 µg/mL,< 2000 µg/mL,> 500 µg/mL,< 2000 µg/mL,< 2000 µg/mL,< 2000 µg/mL,< 2000 µg/mL,> 500 µg/mL,> 500 µg/mL
